Laboratory results taken from patent USRE39706E1, “Crystalline form of a vitamin D analogue” (Leo Pharma A/S, priority 1993, dated 2007).
Where two headings read alike, the source gives them in different places.

Assay: Stability studies, storage at 40° C.
Type: physicochemical

Row | Structure (SMILES) | degradation after 12 months storage | degradation after 12 months storage (hydrate)
1 | C=C1/C(=C\C=C2/CCC[C@]3(C)[C@@H]([C@H](C)/C=C/[C@@H](O)C4CC4)CC[C@@H]23)C[C@@H](O)C[C@@H]1O [anhydrous form of calcipotriol, (1α,3β,5Z,7E,22E,24S)-24-Cyclopropyl-9,10-secochola-5,7,10(19), 22-tetraene-1,3,24-triol] | more than 30% | 
2 | C=C1/C(=C\C=C2/CCC[C@]3(C)[C@@H]([C@H](C)/C=C/[C@@H](O)C4CC4)CC[C@@H]23)C[C@@H](O)C[C@@H]1O [calcipotriol hydrate, calcipotriol, hydrate] |  | no degradation
